Experimental data from article PMC10609904 (Pharmaceuticals, 2023).
Like-named read-outs stand apart in the source and are kept apart here.

Experiments:
[1] = DPPH radical scavenging assay
Method: (§1) The DPPH radical scavenging assay and the ABTS assay were used to assess anti-oxidant activity, as previously described in detail by Nguyen et al.. In a 96-well plate, 100 μL of samples (at various concentrations) or distilled water (blank sample) were combined with 25 μL of 0.75 mM DPPH solution (dissolved in methanol). After that, the plates were kept in complete darkness for 30 min. Subsequently, the absorbance was determined at a wavelength of 517 nm. For the ABTS radical-scavenging activity assay, test samples (at various concentrations) were mixed with pre-diluted ABTS solution (reaching an optical density of 0.7). The reaction was allowed to occur for 10 min at room temperature. The absorbance was measured at 734 nm. Ascorbic acid was used as positive control.
(§2) All chemical assays were conducted in triplicate. […] The IC50 value (half-maximal inhibitory concentration of samples) was determined via a standard equation constructed by the inhibitory activity (%) and the respective concentration of the tested sample.

[2] = ABTS radical-scavenging activity assay
Method: as §1, §2

[3] = target: T1, acetylcholinesterase (AChE) (Electrophorus electricus, UniProt O42275); assay: biochemical
T1 construct: purchased Sigma Aldrich
T1 sequence (O42275 24-633): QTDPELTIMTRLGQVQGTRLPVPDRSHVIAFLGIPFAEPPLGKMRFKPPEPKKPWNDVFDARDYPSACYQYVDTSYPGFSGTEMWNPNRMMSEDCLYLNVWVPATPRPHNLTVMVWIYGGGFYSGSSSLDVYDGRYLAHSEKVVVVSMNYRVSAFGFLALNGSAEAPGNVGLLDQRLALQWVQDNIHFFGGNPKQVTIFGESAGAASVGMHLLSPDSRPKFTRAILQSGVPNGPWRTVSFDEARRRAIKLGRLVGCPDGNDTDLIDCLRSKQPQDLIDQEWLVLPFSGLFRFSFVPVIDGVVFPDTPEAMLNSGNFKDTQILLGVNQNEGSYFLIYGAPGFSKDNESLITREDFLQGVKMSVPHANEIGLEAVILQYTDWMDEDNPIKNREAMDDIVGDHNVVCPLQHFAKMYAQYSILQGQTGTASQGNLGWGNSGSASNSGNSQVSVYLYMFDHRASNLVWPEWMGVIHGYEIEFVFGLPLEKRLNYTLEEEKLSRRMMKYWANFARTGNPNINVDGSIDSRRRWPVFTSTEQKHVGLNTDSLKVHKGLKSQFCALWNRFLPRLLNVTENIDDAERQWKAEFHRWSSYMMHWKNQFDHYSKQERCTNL
Method: The anti-Alzheimer impact was assessed in vitro utilizing the key enzyme acetylcholinesterase inhibition assay, as described in an earlier study. In detail, 120 μL of phosphate buffer, 60 μL of tested sample, and 60 μL of enzymatic solution (0.5 mM) were mixed and incubated for fifteen minutes at 25 °C in a 96-well plate. This was followed by the addition of 30 μL of 5,5′-dithiobis-2-nitrobenzoic acid (0.003 M) and 40 μL of acetylthiocholine iodide (0.002 M). The reaction mixture was kept in an incubator at 25 °C for ten minutes. The absorbance of the solution was measured at 415 nm. Berberine chloride was used as a standard inhibitor of the enzyme.
as §2

## O=C1O[C@H]([C@@H](O)CO)C(O)=C1O [Vitamin C, Ascorbic acid]
[1]
  DPPH IC50: 38.4 ± 0.5 µg/mL
[2]
  ABTS IC50: 23.0 ± 0.4 µg/mL

## COc1cc(O)c2c(c1)oc(=O)c1c3cc(O)c(O)cc3oc21 [compound 1, Wedelolactone]
[3]; read-out: AChE IC50 (converted)
  IC50: 195 µM

## O=C(O)c1ccccc1O [compound 8, Salicylic acid]
[3]
  IC50: 405 µM

## COc1ccc2cc3[n+](cc2c1OC)CCc1cc2c(cc1-3)OCO2 [compound 37, Berberine chloride]
[3]
  IC50: 895 µM
